For the experiment, the system named is AKT phosphorylation. In words: AKT phosphorylation in cells (macrophages) isolated from IPF BALF, MSD assay (Example 1). It is filed as cell-based. The note with it: Homo sapiens, Macrophage, 25 min; macrophages isolated from n=3 IPF BALFs; 25 minutes incubation; geometric mean (95% CI 0.28-1.08 nM); read-out: IC50 for inhibition of AKT phosphorylation. The source says: Phosphorylation of AKT is widely accepted as an indication of PI3-kinase activity, and is utilised here to obtain an IC50 for the effect of 2,4-difluoro-N-{2-(methyloxy)-5-[4-(4-pyridazinyl)-6-quinolinyl]-3-pyridinyl}benzenesulfonamide on primary human lung fibroblasts isolated from the IPF patients, in addition to macrophages isolated from IPF bronchoalveolar lavage (BALF).
In similar experiments, inhibition of AKT phosphorylation by 2,4-difluoro-N-{2-(methyloxy)-5-[4-(4-pyridazinyl)-6-quinolinyl]-3 pyridinyl}benzenesulfonamide is assessed in cells isolated from IPF BALF. Briefly, BAL cells are resuspended in 0.1% BSA RPMI media to a cell provide a cell count of 5.7×10^4-8.3×10^4 cells per well. BAL cells are added to a 96 well plate and incubated with a range of 2,4-difluoro-N-{2-(methyloxy)-5-[4-(4-pyridazinyl)-6-quinolinyl]-3 pyridinyl}benzenesulfonamide (0.1% DMSO and 0.1% BSA final concentration in the assay). After 25 minutes incubation at 37° C., 5% CO2 the plate is spun for 5 min at 1600 rpm. The supernatants are decanted and 40 μl of phosphosafe lysis buffer containing protease inhibitors is added to each well. The plate is then snap frozen in liquid nitrogen and stored at −80° C. prior to further analysis. Following thawing on ice, cell lysates are transferred onto phospho Akt, total Akt Meso Scale Discovery (MSD) capture plates and processed as described above.

One may read the IC50 as the concentration needed to halve the response being measured. As to `COc1ncc(-c2ccc3nccc(-c4ccnnc4)c3c2)cc1NS(=O)(=O)c1ccc(F)cc1F` [2,4-difluoro-N-{2-(methyloxy)-5-[4-(4-pyridazinyl)-6-quinolinyl]-3-pyridinyl}benzenesulfonamide], the IC50 stood at 0.54 nM.

Values taken from patent US20160067247A1, “NOVEL USE” (GlaxoSmithKline Intellectual Property (No.2) Limited, priority 2012, published 2016).
